The experiment concerns the target α7 nAChR subtype (Rattus norvegicus, UniProt Q05941). The format is binding. As to conditions: read-out: KD of radioligand (saturation curves, one site model).

Sequence of α7 nAChR subtype (Q05941 23-502 limits assumed): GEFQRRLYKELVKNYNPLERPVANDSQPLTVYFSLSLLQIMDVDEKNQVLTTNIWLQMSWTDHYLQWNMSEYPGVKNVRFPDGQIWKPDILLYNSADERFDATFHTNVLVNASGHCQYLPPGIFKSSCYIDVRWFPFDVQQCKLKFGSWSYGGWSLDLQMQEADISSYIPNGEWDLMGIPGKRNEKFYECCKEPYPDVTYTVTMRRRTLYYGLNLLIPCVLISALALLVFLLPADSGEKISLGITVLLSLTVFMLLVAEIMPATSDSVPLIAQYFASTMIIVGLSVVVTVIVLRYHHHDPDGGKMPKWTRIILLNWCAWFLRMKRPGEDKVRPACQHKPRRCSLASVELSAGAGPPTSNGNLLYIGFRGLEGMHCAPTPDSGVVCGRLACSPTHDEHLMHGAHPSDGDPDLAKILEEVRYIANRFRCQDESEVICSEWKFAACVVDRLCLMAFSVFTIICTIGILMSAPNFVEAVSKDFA

As for 125I-α-Bungarotoxin [[^125I]-α-BTX], the Kd turned out to be 1.67 nM.

The values are drawn from patent US20080188518A1 (priority 2003, published 2008).
